Measurements: patent publication US9399649B2, “Compounds for treating spinal muscular atrophy” (PTC Therapeutics Inc., priority 2012, dated 2016)

What was measured:
Smn protein = Smn protein assay in cultured cells (SMN HTRF); assay type: cell-based, human; conditions: SMA patient fibroblast cells (GM03813), 48 hours; for EC1.5x for Smn protein expression: 7-point concentration curve, concentration producing 1.5 times Smn protein vs DMSO vehicle; for maximum fold (Fold) increase of Smn protein: 7-point concentration data, relative to vehicle control
In short: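 SMA patient fibroblasts, 5,000 per well in DMEM-10% FBS, exposed 48 h at 37° C. to a 7-point, 3.16-fold compound series in triplicate. RIPA lysates read by SMN HTRF (665/620 nm, overnight at room temperature); ΔF over blank expressed as fold of vehicle.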

[1] = system: full length SMN2 minigene mRNA containing SMN2 exon 7; test: SMN2 minigene mRNA splicing RT-qPCR assay in cultured cells; assay type: cell-based, human; conditions: Homo sapiens, HEK293-H; HEK293H cells stably transfected with SMN2-A minigene, 24 hours, 7-point concentration curve; concentration giving 1.5-fold full length SMN2 mRNA vs vehicle; read-out: EC1.5x for production of full length SMN2 mRNA
In short: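 HEK293H cells stably carrying SMN2-A minigene treated 24 h (37 °C) with compound, 7-point 3.16-fold dilution, duplicates. Multiplex RT-qPCR on lysate with exon 7/luciferase primers and exon 7–8 junction probe (minigene-specific). Full-length transcript normalised to GAPDH by modified ΔΔCt, expressed relative to vehicle-treated cells.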

With `COCCN1CCN(c2ccc3cc(-c4cn5cc(C)nc(C)c5n4)oc(=O)c3c2)C[C@@H]1C` [Cpd 146, 3-(6,8-dimethylimidazo[1,2-a]pyrazin-2-yl)-7-[(3S)-4-(2-methoxyethyl)-3-methylpiperazin-1-yl]-1H-isochromen-1-one] the “EC1.5x for Smn protein expression” value (Smn protein) was “**** (an EC1.5×≦0.3 nM is indicated by four stars (****))”, the “maximum fold (Fold) increase of Smn protein” value (shortened to “maximum fold (Fold) increase”) (Smn protein) was “***** (a fold increase >1.65 is indicated by five stars (*****))” and the melting point was 221 to 226 °C. It also gave an EC (1.5-fold) [1] of 0.1 to 0.3 µM.

For `O=c1oc(-c2ccsc2)cc2ccc(N3CCNCC3)cc12` [Cpd 2, 7-(piperazin-1-yl)-3-(thiophen-3-yl)-1H-isochromen-1-one], the “maximum fold (Fold) increase” value (Smn protein) was “** (a fold increase between >1.2 and ≦1.35 is indicated by two stars (**))”, the melting point was 240 °C (dec.) and the EC (1.5-fold) [1] was 0.3 to 1 µM.

With `CCN1CCN(c2ccc3cc(-c4cn5cc(C)nc(C)c5n4)oc(=O)c3c2)CC1` [Cpd 73, 3-(6,8-dimethylimidazo[1,2-a]pyrazin-2-yl)-7-(4-ethylpiperazin-1-yl)-1H-isochromen-1-one] the “EC1.5x for Smn protein expression” value (Smn protein) was “**** (an EC1.5×≦0.3 nM is indicated by four stars (****))”, the “maximum fold (Fold) increase” value (Smn protein) was “***** (a fold increase >1.65 is indicated by five stars (*****))” and the melting point was 238 to 240 °C. For the same molecule, the EC (1.5-fold) [1] was no more than 0.1 µM.

In the case of `Cc1nc(Cl)cn2cc(-c3cc4ccc(N5C[C@@H](C)N[C@@H](C)C5)cc4c(=O)o3)nc12` [Cpd 110, 3-(6-chloro-8-methylimidazo[1,2-a]pyrazin-2-yl)-7-[(3R,5S)-3,5-dimethylpiperazin-1-yl]-1H-isochromen-1-one], the “EC1.5x for Smn protein expression” value (Smn protein) is reported as “*** (an EC1.5× between >0.3 nM and ≦1 nM is indicated by three stars (***))”, the “maximum fold (Fold) increase” value (Smn protein) is reported as “**** (a fold increase between >1.5 and ≦1.65 is indicated by four stars (****))” and the melting point is reported as 261 to 266 °C. It also gave an EC (1.5-fold) [1] of 0.3 to 1 µM.

With `Cc1cn2cc(-c3cc4ccc(C5CCN(C(C)C)CC5)cc4c(=O)o3)nc2c(C)n1` [Cpd 117, 3-(6,8-dimethylimidazo[1,2-a]pyrazin-2-yl)-7-[1-(propan-2-yl)piperidin-4-yl]-1H-isochromen-1-one] the “EC1.5x for Smn protein expression” value (Smn protein) was “*** (an EC1.5× between >0.3 nM and ≦1 nM is indicated by three stars (***))”, the “maximum fold (Fold) increase” value (Smn protein) was “***** (a fold increase >1.65 is indicated by five stars (*****))” and the melting point was 227 to 229 °C. The EC (1.5-fold) [1] was no more than 0.1 µM.

In the case of `Cc1cn2cc(-c3cc4ccc(N5CCN(C6CCC6)[C@@H](C)C5)cc4c(=O)o3)nc2c(C)n1` [Cpd 136, 7-[(3S)-4-cyclobutyl-3-methylpiperazin-1-yl]-3-(6,8-dimethylimidazo[1,2-a]pyrazin-2-yl)-1H-isochromen-1-one], the “EC1.5x for Smn protein expression” value (Smn protein) is reported as “**** (an EC1.5×≦0.3 nM is indicated by four stars (****))”, the “maximum fold (Fold) increase” value (Smn protein) is reported as “***** (a fold increase >1.65 is indicated by five stars (*****))” and the melting point is reported as 277 to 282 °C. The EC (1.5-fold) [1] was no more than 0.1 µM.

For `Cc1cn2cc(-c3cc4ccc(N5CCN(C6COC6)[C@@H](C)C5)cc4c(=O)o3)nc2c(C)n1` [Cpd 139, 3-(6,8-dimethylimidazo[1,2-a]pyrazin-2-yl)-7-[(3S)-3-methyl-4-(oxetan-3-yl)piperazin-1-yl]-1H-isochromen-1-one], the “EC1.5x for Smn protein expression” value (Smn protein) was “** (an EC1.5× between >1 μM, and ≦3 nM is indicated by two stars (**))”, the “maximum fold (Fold) increase” value (Smn protein) was “***** (a fold increase >1.65 is indicated by five stars (*****))” and the melting point was 251 to 256 °C. The EC (1.5-fold) [1] was 0.3 to 1 µM.

In the case of `COCCN1CCN(c2ccc3cc(-c4cn5cc(C)nc(C)c5n4)oc(=O)c3c2)C[C@H]1C` [Cpd 145, 3-(6,8-dimethylimidazo[1,2-a]pyrazin-2-yl)-7-[(3R)-4-(2-methoxyethyl)-3-methylpiperazin-1-yl]-1H-isochromen-1-one], the “EC1.5x for Smn protein expression” value (Smn protein) is reported as “**** (an EC1.5×≦0.3 nM is indicated by four stars (****))”, the “maximum fold (Fold) increase” value (Smn protein) is reported as “***** (a fold increase >1.65 is indicated by five stars (*****))” and the melting point is reported as 205 to 210 °C. It also gave an EC (1.5-fold) [1] of no more than 0.1 µM.

With `CCc1nc(C)cn2cc(-c3cc4ccc(N5CCN[C@@H](C)C5)cc4c(=O)o3)nc12` [Cpd 152, 3-(8-ethyl-6-methylimidazo[1,2-a]pyrazin-2-yl)-7-[(3S)-3-methylpiperazin-1-yl]-1H-isochromen-1-one] the “EC1.5x for Smn protein expression” value (Smn protein) was “**** (an EC1.5×≦0.3 nM is indicated by four stars (****))”, the “maximum fold (Fold) increase” value (Smn protein) was “***** (a fold increase >1.65 is indicated by five stars (*****))” and the melting point was 206 to 211 °C. It also gave an EC (1.5-fold) [1] of no more than 0.1 µM.

With `C[C@H]1CN(c2ccc3cc(-c4ccc5c(c4)OCO5)oc(=O)c3c2)CCN1` [Cpd 40, 3-(1,3-benzodioxol-5-yl)-7-[(3S)-3-methylpiperazin-1-yl]-1H-isochromen-1-one] the “maximum fold (Fold) increase” value (Smn protein) was “* (A maximum fold increase of ≦1.2 is indicated by one star (*))”, the melting point was 248 to 250 °C and the EC (1.5-fold) [1] was 0.3 to 1 µM.

In the case of `C[C@H]1CN(c2ccc3cc(-c4cccc(OC(F)F)c4)oc(=O)c3c2)CCN1` [Cpd 53, 3-[3-(difluoromethoxy)phenyl]-7-[(3S)-3-methylpiperazin-1-yl]-1H-isochromen-1-one], the “maximum fold (Fold) increase” value (Smn protein) is reported as “** (a fold increase between >1.2 and ≦1.35 is indicated by two stars (**))”, the melting point is reported as 132 to 134 °C and the EC (1.5-fold) [1] is reported as 0.3 to 1 µM.

With `Cc1cn2cc(-c3cc4ccc(N5CCN(C6CC6)CC5)cc4c(=O)o3)nc2c(C)n1` [Cpd 84, 7-(4-cyclopropylpiperazin-1-yl)-3-(6,8-dimethylimidazo[1,2-a]pyrazin-2-yl)-1H-isochromen-1-one] the “EC1.5x for Smn protein expression” value (Smn protein) was “*** (an EC1.5× between >0.3 nM and ≦1 nM is indicated by three stars (***))”, the “maximum fold (Fold) increase” value (Smn protein) was “***** (a fold increase >1.65 is indicated by five stars (*****))” and the melting point was 260 °C (dec.). It also gave an EC (1.5-fold) [1] of 0.1 to 0.3 µM.

With `CCCN1CCN(c2ccc3cc(-c4cn5cc(C)nc(C)c5n4)oc(=O)c3c2)C[C@H]1C` [Cpd 141, 3-(6,8-dimethylimidazo[1,2-a]pyrazin-2-yl)-7-[(3R)-3-methyl-4-propylpiperazin-1-yl]-1H-isochromen-1-one] the “EC1.5x for Smn protein expression” value (Smn protein) was “**** (an EC1.5×≦0.3 nM is indicated by four stars (****))”, the “maximum fold (Fold) increase” value (Smn protein) was “***** (a fold increase >1.65 is indicated by five stars (*****))” and the melting point was 251 to 256 °C. The EC (1.5-fold) [1] was no more than 0.1 µM.

With `C[C@H]1CN(c2ccc3cc(-c4ccc(OC(F)F)cc4)oc(=O)c3c2)CCN1` [Cpd 54, 3-[4-(difluoromethoxy)phenyl]-7-[(3S)-3-methylpiperazin-1-yl]-1H-isochromen-1-one] the “maximum fold (Fold) increase” value (Smn protein) was “* (A maximum fold increase of ≦1.2 is indicated by one star (*))”, the melting point was 121 to 123 °C and the EC (1.5-fold) [1] was 0.3 to 1 µM.

With `Cc1cn2cc(-c3cc4ccc(N5CCC(N(C)C)CC5)cc4c(=O)o3)nc2c(C)n1` [Cpd 124, 7-[4-(dimethylamino)piperidin-1-yl]-3-(6,8-dimethylimidazo[1,2-a]pyrazin-2-yl)-1H-isochromen-1-one] the “EC1.5x for Smn protein expression” value (Smn protein) was “**** (an EC1.5×≦0.3 nM is indicated by four stars (****))”, the “maximum fold (Fold) increase” value (Smn protein) was “**** (a fold increase between >1.5 and ≦1.65 is indicated by four stars (****))” and the melting point was 274 to 276 °C. It also gave an EC (1.5-fold) [1] of no more than 0.1 µM.

For `Cc1cn2cc(-c3cc4ccc(N5CCC(O)CC5)cc4c(=O)o3)nc2c(C)n1` [Cpd 123, 3-(6,8-dimethylimidazo[1,2-a]pyrazin-2-yl)-7-(4-hydroxypiperidin-1-yl)-1H-isochromen-1-one], the “maximum fold (Fold) increase” value (Smn protein) was “* (A maximum fold increase of ≦1.2 is indicated by one star (*))”, the melting point was 290 to 292 °C and the EC (1.5-fold) [1] was 1 to 3 µM.

With `Cc1cn2cc(-c3cc4ccc(N5CCN6CCC[C@@H]6C5)cc4c(=O)o3)cc2c(C)n1` [Cpd 81, 3-(1,3-dimethylpyrrolo[1,2-a]pyrazin-7-yl)-7-[(8aR)-hexahydropyrrolo[1,2-a]pyrazin-2(1H)-yl]-1H-isochromen-1-one] the “EC1.5x for Smn protein expression” value (Smn protein) was “**** (an EC1.5×≦0.3 nM is indicated by four stars (****))”, the “maximum fold (Fold) increase” value (Smn protein) was “***** (a fold increase >1.65 is indicated by five stars (*****))” and the melting point was 218 to 220 °C. The EC (1.5-fold) [1] was no more than 0.1 µM.

For `C[C@H]1CN(c2ccc3cc(-c4nc5ccccc5s4)oc(=O)c3c2)CCN1` [Cpd 36, 3-(1,3-benzothiazol-2-yl)-7-[(3S)-3-methylpiperazin-1-yl]-1H-isochromen-1-one], the “maximum fold (Fold) increase” value (Smn protein) was “* (A maximum fold increase of ≦1.2 is indicated by one star (*))”, the melting point was 236 to 238 °C and the EC (1.5-fold) [1] was 3 to 30 µM.

In the case of `CCCN1CC=C(c2ccc3cc(-c4cn5cc(C)nc(C)c5n4)oc(=O)c3c2)CC1` [Cpd 95, 3-(6,8-dimethylimidazo[1,2-a]pyrazin-2-yl)-7-(1-propyl-1,2,3,6-tetrahydropyridin-4-yl)-1H-isochromen-1-one], the “EC1.5x for Smn protein expression” value (Smn protein) is reported as “**** (an EC1.5×≦0.3 nM is indicated by four stars (****))”, the “maximum fold (Fold) increase” value (Smn protein) is reported as “***** (a fold increase >1.65 is indicated by five stars (*****))” and the melting point is reported as 226 to 228 °C. It also gave an EC (1.5-fold) [1] of no more than 0.1 µM.

In the case of `CCc1nc(C)cn2cc(-c3cc4ccc(N5C[C@@H](C)N[C@@H](C)C5)cc4c(=O)o3)nc12` [Cpd 154, 7-[(3R,5S)-3,5-dimethylpiperazin-1-yl]-3-(8-ethyl-6-methylimidazo[1,2-a]pyrazin-2-yl)-1H-isochromen-1-one], the “EC1.5x for Smn protein expression” value (Smn protein) is reported as “**** (an EC1.5×≦0.3 nM is indicated by four stars (****))”, the “maximum fold (Fold) increase” value (Smn protein) is reported as “***** (a fold increase >1.65 is indicated by five stars (*****))” and the melting point is reported as 239 to 244 °C. For the same molecule, the EC (1.5-fold) [1] was no more than 0.1 µM.
